The source of these data is patent publication US20150119363A1, “METHODS OF TREATING BACTERIAL INFECTIONS” (Rampex Pharmaceuticals, Inc., priority 2012, published 2015).

One experiment has as its system KP1004 KPC-2. Nature of the experiment: Dose titration biapenem potentiation assay (MPC1). The experiment is classed as cell-based, Klebsiella pneumoniae. The note with it: Klebsiella pneumoniae; KP1004 KPC-2.
Another experiment deals with KP1008 KPC-2. The experiment can be described thus: Dose titration biapenem potentiation assay (MPC1). The experiment is classed as cell-based, Klebsiella pneumoniae. The note with it: Klebsiella pneumoniae; KP1008 KPC-2.
A further experiment deals with EC1007 KPC-3. Nature of the experiment: Dose titration biapenem potentiation assay (MPC1). Type of experiment: cell-based, Escherichia coli. The note with it: Escherichia coli; EC1007 KPC-3. The gist of the method:
(§1)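 Growth of carbapenemase-expressing strains measured with biapenem held at a sub-inhibitory 1 μg/mL; BLI compounds titrated from a top concentration of 40 μg/mL. MPC1 is the inhibitor concentration that restores growth inhibition by biapenem.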

Another experiment concerns ECL1004 NMC-A. The experiment can be described thus: Dose titration biapenem potentiation assay (MPC1). The note with it: Enterobacter cloacae; ECL1004 NMC-A. The experiment is classed as cell-based, Enterobacter cloacae. In short, it runs like this: as §1
Experiment [1] deals with Enterobacter cloacae ECL1058 (KPC-3, SHV-11, TEM-1). The experiment can be described thus: Checkerboard assay, Compound 5 with biapenem. The note with it: Enterobacter cloacae. Type of experiment: cell-based. The text has this: (§2) The potentiation effect is observed by the reduction of the minimum inhibitory concentration of β-lactam antibiotics in the presence of β-lactamase inhibitors (BLIs). […] Methods for Dilution of Antimicrobial Susceptibility Tests for Bacteria That Grow Aerobically—Eighth Edition; Approved Standard. CLSI Document M07-A8, 2009). In this assay, multiple dilutions of two drugs, namely BLI and β-lactam (biapenem), are being tested, alone and in combination, at concentrations equal to, above and below their respective minimal inhibitory concentrations (MICs). BLIs are solubilized in 10% DMSO at 10 mg/mL. Stock solutions are further diluted, according to the needs of a particular assay, in Mueller Hinton Broth (MHB). Stock solution can be stored at −80° C.
(§3) The checkerboard (CB) assay is performed in microtiter plates. Biapenem is diluted in the x axis, each column containing a single concentration of antibiotic. BLIs are diluted in the y axis, each row containing an equal concentration of BLI. The result of these manipulations is that each well of the microtiter plate contains a unique combination of concentrations of the two agents. The assay is performed in MHB with a final bacterial inoculum of 5×10^5 CFU/mL (from an early-log phase culture). Microtiter plates are incubated during 20 h at 35° C. and are read using a microtiter plate reader (Molecular Devices) at 650 nm as well as visual observation using a microtiter plate reading mirror.

The test system of experiment [2] is Enterobacter cloacae ECL1059 (KPC-3, SHV-12, TEM-1). Nature of the experiment: Checkerboard assay, Compound 5 with biapenem. Type of experiment: cell-based. Particulars: Enterobacter cloacae.
From the text: as §2, §3

Experiment [3] deals with Escherichia coli EC1007 (KPC-3). Nature of the experiment: Checkerboard assay, Compound 5 with biapenem. The note with it: Escherichia coli. The experiment is classed as cell-based.
From the text: as §2, §3

Experiment [4] relates to Klebsiella oxytoca KX1017 (KPC-2, OXA-2, SHV-30). The experiment can be described thus: Checkerboard assay, Compound 5 with biapenem. The experiment is classed as cell-based. Particulars: Klebsiella oxytoca.
From the text: as §2, §3

Experiment [5] relates to Klebsiella oxytoca KX1018 (KPC-2, SHV-40, OXY-1). The experiment can be described thus: Checkerboard assay, Compound 5 with biapenem. Type of experiment: cell-based. The note with it: Klebsiella oxytoca.
From the text: as §2, §3

Experiment [6] deals with Klebsiella oxytoca KX1019 (KPC-2, OXA-2). Nature of the experiment: Checkerboard assay, Compound 5 with biapenem. Particulars: Klebsiella oxytoca. Type of experiment: cell-based.
From the text: as §2, §3

In experiment [7] the test system is Klebsiella pneumoniae KP1004 (KPC-2). The experiment can be described thus: Checkerboard assay, Compound 5 with biapenem. Particulars: Klebsiella pneumoniae. Type of experiment: cell-based.
From the text: as §2, §3

The test system of experiment [8] is Klebsiella pneumoniae KP1008 (KPC-2). The experiment can be described thus: Checkerboard assay, Compound 5 with biapenem. Type of experiment: cell-based. The note with it: Klebsiella pneumoniae.
From the text: as §2, §3

For experiment [9], the system named is Klebsiella pneumoniae KP1082 (KPC-2, SHV-1). Nature of the experiment: Checkerboard assay, Compound 5 with biapenem. Type of experiment: cell-based. The note with it: Klebsiella pneumoniae.
From the text: as §2, §3

Experiment [10] has as its system Klebsiella pneumoniae KP1083 (KPC-3, SHV-1, TEM-1). Nature of the experiment: Checkerboard assay, Compound 5 with biapenem. Type of experiment: cell-based. Particulars: Klebsiella pneumoniae.
From the text: as §2, §3

For experiment [11], the system named is Klebsiella pneumoniae KP1084 (KPC-3, SHV-11, TEM-1). Nature of the experiment: Checkerboard assay, Compound 5 with biapenem. Type of experiment: cell-based. Particulars: Klebsiella pneumoniae.
From the text: as §2, §3

Experiment [12] concerns Klebsiella pneumoniae KP1087 (KPC-2, CTX-M-15, SHV-11, TEM-1). The experiment can be described thus: Checkerboard assay, Compound 5 with biapenem. The experiment is classed as cell-based. The note with it: Klebsiella pneumoniae.
From the text: as §2, §3

In experiment [13] the test system is Klebsiella pneumoniae KP1088 (KPC-3, SHV-11, TEM-1). Nature of the experiment: Checkerboard assay, Compound 5 with biapenem. The experiment is classed as cell-based. The note with it: Klebsiella pneumoniae.
From the text: as §2, §3

In experiment [14] the test system is Escherichia coli (EC1061) NDM-1. Nature of the experiment: Biapenem MIC at various concentrations of Compound 5. Type of experiment: cell-based. Particulars: Escherichia coli.
Experiment [15] concerns Klebsiella pneumonia (KP1004) KPC-2. Described as above. The note with it: Klebsiella pneumoniae. Type of experiment: cell-based.
Experiment [16] relates to Klebsiella pneumonia (KPM1097) NDM-1, KPC-2. The experiment is described as above. The experiment is classed as cell-based. Particulars: Klebsiella pneumoniae.
Experiment [17] deals with E. coli EC1061 (NDM-1 CMY-6). The experiment can be described thus: Aztreonam/Tigemonam MIC at various concentrations of BLI. Particulars: for MIC: Escherichia coli, E. coli EC1061, read-out: Tigemonam MIC. The experiment is classed as cell-based. As to the method:
MIC values for each bacterial strain were measured for each antimicrobial compound at various concentrations of each BLI. […]

Experiment [18] concerns bacterial strains that expressed the beta-lactamase, NDM-1 and CMY-6. Nature of the experiment: Aztreonam/Tigemonam MIC at various concentrations of BLI (summary). Type of experiment: cell-based. As to the method:
(§4) MIC values for each bacterial strain were measured for each antimicrobial compound at various concentrations of each BLI.

Experiment [19] has as its system K. pneumoniae KP1081 (NDM-1, CMY-6, SHV-11, CTX-M-15, TEM-1). Nature of the experiment: Aztreonam/Tigemonam MIC at various concentrations of BLI. The experiment is classed as cell-based. Particulars: KP1081. As to the method: as §4
For experiment [20], the system named is E. coli EC1061 (NDM-1 CMY-6). The experiment is described as above. The experiment is classed as cell-based. Particulars: Compound 68 0 μg/ml.

In brackets after ≈: the same amount, converted by molar mass. Where two headings read alike, the source gives them in different places.

Regarding `C[C@@H](O)[C@H]1C(=O)N2C(C(=O)[O-])=C(SC3Cn4cnc[n+]4C3)[C@H](C)[C@H]12` (stereo partly drawn) [Biapenem, reference compound], the MIC is > 8 µg/mL with KP1004 KPC-2; 8 µg/mL in the experiment on KP1008 KPC-2; 4 µg/mL in the experiment on EC1007 KPC-3; 8 µg/mL in the experiment with ECL1004 NMC-A; > 4 µg/mL in experiment [1]; 0.5 to 4 µg/mL in experiment [2]. The MIC in [3] was > 4 µg/mL; in [4] it was 0.5 to 4 µg/mL; in experiment [5], > 4 µg/mL; in [6], > 4 µg/mL; in [7] it was > 4 µg/mL; in [8], > 4 µg/mL. For the same molecule, the MIC in experiment [9] was 0.5 to 4 µg/mL; in [10], > 4 µg/mL; in experiment [11] it was > 4 µg/mL; in experiment [12], > 4 µg/mL; in experiment [13], > 4 µg/mL; in [14], 0.125 µg/mL (≈ 0.357 µM). Besides, the minimum inhibitory concentration (MIC) in [15] came out at 8 µg/mL (≈ 22.8 µM); in [16], 16 µg/mL (≈ 45.7 µM).
`O=C(O)C[C@H]1C=CC[C@H](NC(=O)Cc2cccs2)B(O)O1` [Compound 68, 2-((3R,7S)-2-hydroxy-3-(2-(thiophen-2-yl)acetamido)-2,3,4,7-tetrahydro-1,2-oxaborepin-7-yl)acetic acid]: the MIC in experiment [17] (with 0.31 μg/ml Compound A) worked out at 0.5 µg/mL (≈ 1.62 µM). Moreover, the “effect on Aztreonam or Tigemonam MICs” value in [18] was “decreased the Aztreonam or Tigemonan MICs”.
Turning to `CC1(C)[C@H](NC(=O)/C(=N\OCC(=O)O)c2csc(N)n2)C(=O)N1OS(=O)(=O)O` [Tigemonam, reference compound], the “Tigemonam MIC (μg/ml) in the presence of BLI” value in experiment [17] (EC1061, Compound 5 0 μg/ml) came out at 8 µg/mL; in [19] (Compound 5 0 μg/ml) it was 16 µg/mL; in experiment [19] (Compound 68 0 μg/ml) it was 16 µg/mL; in experiment [20], 16 µg/mL. Further, the MIC in experiment [17] (tigemonam alone) was determined as 8 µg/mL (≈ 18.3 µM).

Broadly, the MIC is the lowest concentration that inhibits growth of the organism.
